System: MV-4-11 cells
Experiment: Gene expression microarray analysis (Affymetrix PrimeView) and GSEA
Format: cell-based, human
Parameters: RFU PODN (11730768_x_at) / Fold change /veh PODN (11730768_x_at) / RFU LINC00158 (11744669_a_at) / Fold change /veh LINC00158 (11744669_a_at) / RFU DUSP10 (11751237_a_at) / Fold change /veh DUSP10 (11751237_a_at) / RFU ID3 (11757404_x_at) / Fold change /veh ID3 (11757404_x_at) / RFU PLEKHG5 (11737974_s_at) / Fold change /veh PLEKHG5 (11737974_s_at) / RFU LRRC4B (11730491_at) / Fold change /veh LRRC4B (11730491_at) / RFU GIMAP4 (11747438_a_at) / Fold change /veh GIMAP4 (11747438_a_at) / RFU KRT8 (11758183_x_at) / Fold change /veh KRT8 (11758183_x_at) / RFU CNN1 (11734310_a_at) / Fold change /veh CNN1 (11734310_a_at) / RFU VPS37D (11726825_at) / Fold change /veh VPS37D (11726825_at) / RFU C10orf10 (11716522_x_at) / Fold change /veh C10orf10 (11716522_x_at) / RFU KIR2DL2 /// KIR2DL4 /// KIR2DL5A /// KIR2DL5B /// KIR2DS1 /// KIR2DS2 /// KIR2DS3 /// KIR2DS4 /// KIR3DL3 /// KIR3DL3 /// KIR3DS1 (11738374_at) / Fold change /veh KIR2DL2 /// KIR2DL4 /// KIR2DL5A /// KIR2DL5B /// KIR2DS1 /// KIR2DS2 /// KIR2DS3 /// KIR2DS4 /// KIR3DL3 /// KIR3DL3 /// KIR3DS1 (11738374_at) / RFU C1QL1 (11718748_at) / Fold change /veh C1QL1 (11718748_at) / RFU TMPRSS4 (11747572_a_at) / Fold change /veh TMPRSS4 (11747572_a_at) / RFU HAMP (11756126_x_at) / Fold change /veh HAMP (11756126_x_at) / RFU RNFT2 (11725882_a_at) / Fold change /veh RNFT2 (11725882_a_at) / RFU NR4A2 (11747474_a_at) / Fold change /veh NR4A2 (11747474_a_at) / RFU ABCC12 (11746883_a_at) / Fold change /veh ABCC12 (11746883_a_at) / RFU TMEM136 (11760407_x_at) / Fold change /veh TMEM136 (11760407_x_at) / RFU CLDN22 /// WWC2 (11732394_at) / Fold change /veh CLDN22 /// WWC2 (11732394_at) / RFU HLA-DPB1 (11760878_x_at) / Fold change /veh HLA-DPB1 (11760878_x_at) / RFU SPINT1 (11716480_a_at) / Fold change /veh SPINT1 (11716480_a_at) / RFU GAP43 (11754022_s_at) / Fold change /veh GAP43 (11754022_s_at) / RFU A4GNT (11735810_at) / Fold change /veh A4GNT (11735810_at) / RFU PRB3 (11715151_x_at) / Fold change /veh PRB3 (11715151_x_at) / RFU TUBB4B (11761932_at) / Fold change /veh TUBB4B (11761932_at) / RFU CAPN14 (11732068_a_at) / Fold change /veh CAPN14 (11732068_a_at) / RFU TMCC2 (11721928_a_at) / Fold change /veh TMCC2 (11721928_a_at) / RFU IRGQ (11745062_a_at) / Fold change /veh IRGQ (11745062_a_at) / RFU FAM174B (11720279_a_at) / Fold change /veh FAM174B (11720279_a_at) / RFU TMPRSS4 (11748680_a_at) / Fold change /veh TMPRSS4 (11748680_a_at) / RFU FAM212B (11763350_a_at) / Fold change /veh FAM212B (11763350_a_at) / RFU PLEKHG5 (11743358_a_at) / Fold change /veh PLEKHG5 (11743358_a_at) / RFU ZSCAN30 (11745921_a_at) / Fold change /veh ZSCAN30 (11745921_a_at) / RFU CMKLR1 (11741424_a_at) / Fold change /veh CMKLR1 (11741424_a_at) / RFU LOC101060620 /// MAPK8IP1 (11723275_at) / Fold change /veh LOC101060620 /// MAPK8IP1 (11723275_at) / RFU SPTSSB (11747773_x_at) / Fold change /veh SPTSSB (11747773_x_at) / RFU PRSS12 (11739890_at) / Fold change /veh PRSS12 (11739890_at) / RFU BIN1 (11741810_x_at) / Fold change /veh BIN1 (11741810_x_at) / RFU WNT11 (11732464_a_at) / Fold change /veh WNT11 (11732464_a_at) / RFU C10orf10 (11716521_a_at) / Fold change /veh C10orf10 (11716521_a_at) / RFU C5orf56 (11738089_at) / Fold change /veh C5orf56 (11738089_at) / RFU CYB561 (11721691_x_at) / Fold change /veh CYB561 (11721691_x_at) / RFU ANKRD19P (11752326_a_at) / Fold change /veh ANKRD19P (11752326_a_at) / RFU OR2T12 /// OR2T33 /// OR2T8 (11738714_s_at) / Fold change /veh OR2T12 /// OR2T33 /// OR2T8 (11738714_s_at) / RFU VCAN (11748164_a_at) / Fold change /veh VCAN (11748164_a_at) / RFU JSRP1 (11732532_at) / Fold change /veh JSRP1 (11732532_at) / RFU KRTAP10-11 (11738290_x_at) / Fold change /veh KRTAP10-11 (11738290_x_at) / RFU MYO3A (11730013_a_at) / Fold change /veh MYO3A (11730013_a_at) / RFU EBF3 (11725865_a_at) / Fold change /veh EBF3 (11725865_a_at) / RFU CAMK2N1 (11719241_x_at) / Fold change /veh CAMK2N1 (11719241_x_at) / RFU C5orf56 (11738088_a_at) / Fold change /veh C5orf56 (11738088_a_at) / RFU OLFML3 (11715873_a_at) / Fold change /veh OLFML3 (11715873_a_at) / RFU LOC100653217 /// NTM (11731650_a_at) / Fold change /veh LOC100653217 /// NTM (11731650_a_at) / RFU MAPK11 (11762145_a_at) / Fold change /veh MAPK11 (11762145_a_at) / RFU FIZ1 (11724087_x_at) / Fold change /veh FIZ1 (11724087_x_at) / RFU OASL (11726364_x_at) / Fold change /veh OASL (11726364_x_at) / RFU SOX15 (11748057_x_at) / Fold change /veh SOX15 (11748057_x_at) / RFU CD79A (11719716_a_at) / Fold change /veh CD79A (11719716_a_at) / RFU HIST1H1D (11736915_at) / Fold change /veh HIST1H1D (11736915_at) / RFU CASKIN2 (11723855_a_at) / Fold change /veh CASKIN2 (11723855_a_at) / RFU LOC730098 (11760151_x_at) / Fold change /veh LOC730098 (11760151_x_at) / RFU OR4N2 (11742367_at) / Fold change /veh OR4N2 (11742367_at) / RFU PRRT2 (11749266_a_at) / Fold change /veh PRRT2 (11749266_a_at) / RFU SNX32 (11753110_a_at) / Fold change /veh SNX32 (11753110_a_at) / RFU CDHR5 (11726645_a_at) / Fold change /veh CDHR5 (11726645_a_at) / RFU RCAN1 (11760418_a_at) / Fold change /veh RCAN1 (11760418_a_at) / RFU FAM167A (11723789_a_at) / Fold change /veh FAM167A (11723789_a_at) / RFU FAM26E (11764081_at) / Fold change /veh FAM26E (11764081_at) / RFU ISYNA1 (11749810_s_at) / Fold change /veh ISYNA1 (11749810_s_at) / RFU ACY1 (11761880_at) / Fold change /veh ACY1 (11761880_at) / RFU 11764098_at / Fold change /veh 11764098_at / RFU SAMD14 (11745864_x_at) / Fold change /veh SAMD14 (11745864_x_at) / RFU NPB (11741838_a_at) / Fold change /veh NPB (11741838_a_at) / RFU TMPRSS6 (11731388_a_at) / Fold change /veh TMPRSS6 (11731388_a_at) / RFU KRTAP10-2 (11738614_at) / Fold change /veh KRTAP10-2 (11738614_at) / RFU ARHGAP8 /// PRR5-ARHGAP8 (11727945_x_at) / Fold change /veh ARHGAP8 /// PRR5-ARHGAP8 (11727945_x_at) / RFU KRTAP5-7 /// NADSYN1 (11734609_at) / Fold change /veh KRTAP5-7 /// NADSYN1 (11734609_at) / RFU RASL12 (11751679_a_at) / Fold change /veh RASL12 (11751679_a_at) / RFU CDKN2B (11736163_a_at) / Fold change /veh CDKN2B (11736163_a_at) / RFU PRF1 (11729649_at) / Fold change /veh PRF1 (11729649_at) / RFU, ZNF638 /// ZNF638-IT1 / Fold change vs veh, ZNF638 /// ZNF638-IT1 / RFU, PANK3 / Fold change vs veh, PANK3 / RFU, SH3YL1 / Fold change vs veh, SH3YL1 / RFU, ZEB2 / Fold change vs veh, ZEB2 / RFU, NRIP1 / Fold change vs veh, NRIP1 / RFU, PTTG1IP / Fold change vs veh, PTTG1IP / RFU, CAPN2 / Fold change vs veh, CAPN2 / RFU, MED14 / Fold change vs veh, MED14 / RFU, SNORA58 / Fold change vs veh, SNORA58 / RFU, C1orf63 / Fold change vs veh, C1orf63 / RFU, LRRFIP1 / Fold change vs veh, LRRFIP1 / RFU, NDUFAF7 / Fold change vs veh, NDUFAF7 / RFU, SLC12A2 / Fold change vs veh, SLC12A2 / RFU, IBTK / Fold change vs veh, IBTK / RFU, ESF1 / Fold change vs veh, ESF1 / Fold change vs veh, TMEM50B / RFU, TAOK1 / Fold change vs veh, TAOK1 / RFU, ACBD3 / Fold change vs veh, ACBD3 / RFU, TMA16 / Fold change vs veh, TMA16 / RFU, RWDD3 / Fold change vs veh, RWDD3 / RFU, BCAT1 / Fold change vs veh, BCAT1 / RFU, EDEM3 / Fold change vs veh, EDEM3 / RFU, TMEM33 / Fold change vs veh, TMEM33 / RFU, WDR75 / Fold change vs veh, WDR75 / RFU, AHCTF1 / Fold change vs veh, AHCTF1 / RFU, TFRC / Fold change vs veh, TFRC / RFU, ZDHHC17 / Fold change vs veh, ZDHHC17 / RFU, NOM1 / Fold change vs veh, NOM1 / RFU, ARL8B / Fold change vs veh, ARL8B / RFU, ZBTB11 / Fold change vs veh, ZBTB11 / RFU, TAMM41 / Fold change vs veh, TAMM41 / RFU, KIAA1704 /// LOC100996395 / Fold change vs veh, KIAA1704 /// LOC100996395 / RFU, ING1 / Fold change vs veh, ING1 / RFU, TRMT61B / Fold change vs veh, TRMT61B / RFU, FUBP3 / Fold change vs veh, FUBP3 / RFU, TP53 / Fold change vs veh, TP53 / RFU, TNKS2 / Fold change vs veh, TNKS2 / RFU, ZFP14 / Fold change vs veh, ZFP14 / RFU, ACTR2 / Fold change vs veh, ACTR2 / RFU, PPP3R1 / Fold change vs veh, PPP3R1 / RFU, PIK3R1 / Fold change vs veh, PIK3R1 / RFU, HNRNPA1 / Fold change vs veh, HNRNPA1 / RFU, RNF170 / Fold change vs veh, RNF170 / RFU, ZNF28 / Fold change vs veh, ZNF28 / RFU, RNGTT / Fold change vs veh, RNGTT / RFU, OGT / Fold change vs veh, OGT / RFU, BRD1 / Fold change vs veh, BRD1 / RFU, MARS / Fold change vs veh, MARS / RFU, ZNF655 / Fold change vs veh, ZNF655 / RFU, FAHD1 / Fold change vs veh, FAHD1 / RFU, BDP1 / Fold change vs veh, BDP1 / RFU, LRRCC1 / Fold change vs veh, LRRCC1 / RFU, ARID1A / Fold change vs veh, ARID1A / RFU, ZNF146 / Fold change vs veh, ZNF146 / RFU, ZNF330 / Fold change vs veh, ZNF330 / RFU, GPN3 / Fold change vs veh, GPN3 / RFU, C9orf123 / Fold change vs veh, C9orf123 / RFU, N4BP2L2 / Fold change vs veh, N4BP2L2 / RFU, ARFIP1 / Fold change vs veh, ARFIP1 / RFU, FAM179B / Fold change vs veh, FAM179B / RFU, BCL10 / Fold change vs veh, BCL10 / RFU, UHRF1BP1L / Fold change vs veh, UHRF1BP1L / RFU, BET1 / Fold change vs veh, BET1 / RFU, CNOT2 / Fold change vs veh, CNOT2 / RFU, ZNF268 / Fold change vs veh, ZNF268 / Fold change vs veh, ZNF507 / RFU, DGCR2 / Fold change vs veh, DGCR2 / RFU, WDSUB1 / Fold change vs veh, WDSUB1 / Fold change vs veh, HSP90B1 /// MIR3652 / RFU, ADSS / Fold change vs veh, ADSS / RFU, GK / Fold change vs veh, GK / RFU, ZNF148 / Fold change vs veh, ZNF148 / RFU, TAF9 / Fold change vs veh, TAF9 / RFU, SLC1A5 / Fold change vs veh, SLC1A5 / RFU, SLMO2 / Fold change vs veh, SLMO2 / RFU, ABCC4 / Fold change vs veh, ABCC4 / RFU, LOC101060439 /// RAP1B / Fold change vs veh, LOC101060439 /// RAP1B / RFU, RFX7 / Fold change vs veh, RFX7 / RFU, GTPBP10 / Fold change vs veh, GTPBP10 / RFU, CNEP1R1 / Fold change vs veh, CNEP1R1 / RFU, BIVM-ERCC5 /// ERCC5 / Fold change vs veh, BIVM-ERCC5 /// ERCC5 / RFU, ILF3 / Fold change vs veh, ILF3 / RFU 11762660_at / Fold change /veh 11762660_at / RFU VCAN (11757783_s_at) / Fold change /veh VCAN (11757783_s_at) / RFU DDX43 (11728927_at) / Fold change /veh DDX43 (11728927_at) / RFU KRT8 (11758188_x_at) / Fold change /veh KRT8 (11758188_x_at) / RFU NKD1 (11759106_at) / Fold change /veh NKD1 (11759106_at) / RFU SRD5A1 (11742802_a_at) / Fold change /veh SRD5A1 (11742802_a_at) / RFU TPSAB1 /// TPSB2 (11721975_s_at) / Fold change /veh TPSAB1 /// TPSB2 (11721975_s_at) / RFU GSTM3 (11746129_a_at) / Fold change /veh GSTM3 (11746129_a_at) / RFU IL23R (11737362_x_at) / Fold change /veh IL23R (11737362_x_at) / RFU TMEM51 (11727254_a_at) / Fold change /veh TMEM51 (11727254_a_at) / RFU PIWIL2 (11732686_x_at) / Fold change /veh PIWIL2 (11732686_x_at) / RFU ORM1 (11744905_x_at) / Fold change /veh ORM1 (11744905_x_at) / RFU CCDC152 (11743942_at) / Fold change /veh CCDC152 (11743942_at) / RFU ECM1 (11717891_a_at) / Fold change /veh ECM1 (11717891_a_at) / RFU IL23R (11748794_a_at) / Fold change /veh IL23R (11748794_a_at) / RFU TNFAIP8L3 (11732012_x_at) / Fold change /veh TNFAIP8L3 (11732012_x_at) / RFU MBOAT4 (11741988_at) / Fold change /veh MBOAT4 (11741988_at) / RFU 11764193_at / Fold change /veh 11764193_at / RFU TMEM53 (11763286_at) / Fold change /veh TMEM53 (11763286_at) / RFU MAGEB2 (11727129_at) / Fold change /veh MAGEB2 (11727129_at) / RFU TMEM200A (11744735_a_at) / Fold change /veh TMEM200A (11744735_a_at) / RFU CCDC152 (11751479_a_at) / Fold change /veh CCDC152 (11751479_a_at) / RFU FAM211A (11726209_a_at) / Fold change /veh FAM211A (11726209_a_at) / RFU RGS16 (11746705_a_at) / Fold change /veh RGS16 (11746705_a_at) / RFU VCAN (11755009_s_at) / Fold change /veh VCAN (11755009_s_at) / RFU RHOB (11743442_s_at) / Fold change /veh RHOB (11743442_s_at) / RFU RGS16 (11720943_a_at) / Fold change /veh RGS16 (11720943_a_at) / RFU RGS16 (11720944_at) / Fold change /veh RGS16 (11720944_at) / RFU, VPS4B / Fold change vs veh, VPS4B / RFU, CREB1 / Fold change vs veh, CREB1 / RFU, DNAJC13 / Fold change vs veh, DNAJC13 / RFU, GNAQ / Fold change vs veh, GNAQ / RFU, CDK5R1 / Fold change vs veh, CDK5R1 / RFU, ZRANB3 / Fold change vs veh, ZRANB3 / RFU, CUL4A / Fold change vs veh, CUL4A / RFU, CCNY / Fold change vs veh, CCNY / RFU, UFL1 / Fold change vs veh, UFL1 / RFU, COG3 / Fold change vs veh, COG3 / RFU, DIAPH2 / Fold change vs veh, DIAPH2 / RFU, SKA2 / Fold change vs veh, SKA2 / RFU, AFF3 / Fold change vs veh, AFF3 / RFU, LMF1 / Fold change vs veh, LMF1 / RFU, IPO11 / Fold change vs veh, IPO11 / RFU, DFFB / Fold change vs veh, DFFB / RFU, FOXP1 / Fold change vs veh, FOXP1 / RFU, CARD8 / Fold change vs veh, CARD8 / RFU, STRN3 / Fold change vs veh, STRN3 / RFU, ADK / Fold change vs veh, ADK / RFU, RASSF2 / Fold change vs veh, RASSF2 / RFU, WIPF1 / Fold change vs veh, WIPF1 / RFU, LARP1B / Fold change vs veh, LARP1B / RFU, RASA1 / Fold change vs veh, RASA1 / RFU, RB1 / Fold change vs veh, RB1 / RFU, PPFIA1 / Fold change vs veh, PPFIA1 / RFU, MAT2A / Fold change vs veh, MAT2A / RFU, CCT5 / Fold change vs veh, CCT5 / RFU, WDR92 / Fold change vs veh, WDR92 / RFU, CUX1 / Fold change vs veh, CUX1 / RFU, TTC7A / Fold change vs veh, TTC7A / RFU, TMEM135 / Fold change vs veh, TMEM135 / RFU, DEPTOR / Fold change vs veh, DEPTOR / RFU, CPM / Fold change vs veh, CPM / RFU, DNAJB6 / Fold change vs veh, DNAJB6 / RFU, CACNA2D3 / Fold change vs veh, CACNA2D3 / RFU, DTX4 / Fold change vs veh, DTX4 / RFU, TFCP2 / Fold change vs veh, TFCP2 / RFU, GMCL1 /// GMCL1P1 / Fold change vs veh, GMCL1 /// GMCL1P1 / RFU, AEBP2 / Fold change vs veh, AEBP2 / RFU, SNHG1 /// SNORD22 /// SNORD25 /// SNORD26 /// SNORD27 /// SNORD28 /// SNORD29 /// SNORD31 / Fold change vs veh, SNHG1 /// SNORD22 /// SNORD25 /// SNORD26 /// SNORD27 /// SNORD28 /// SNORD29 /// SNORD31 / Fold change (Aza/veh), C12orf56 (ProbeSet 11735607_a_at) / Fold change (ACY-1035/veh), C12orf56 (ProbeSet 11735607_a_at) / Fold change (Aza/veh), FGFR1OP (ProbeSet 11751329_s_at) / Fold change (ACY-1035/veh), FGFR1OP (ProbeSet 11751329_s_at) / Fold change (Aza/veh), VPS36 (ProbeSet 11739960_a_at) / Fold change (ACY-1035/veh), VPS36 (ProbeSet 11739960_a_at) / RFU SYPL1 (11715823_x_at) / Fold change /veh SYPL1 (11715823_x_at) / RFU IGFBP7 (11715501_s_at) / Fold change /veh IGFBP7 (11715501_s_at) / RFU REEP3 (11722064_at) / Fold change /veh REEP3 (11722064_at) / RFU IGLL1 (11728026_x_at) / Fold change /veh IGLL1 (11728026_x_at): dose or concentration left out as unconfirmed
Details: ProbeSet 11758919_x_at; LIST D

## Nc1ncn([C@@H]2O[C@H](CO)[C@@H](O)[C@H]2O)c(=O)n1 [azacitidine]
  RFU, TFCP2: 66.08 RFU

— PMC5218480 (PLoS ONE, 2017)
